Source: patent US20250179059A1 (The Regents of the University of California, priority 2021, published 2025)

Assays:
[1] = molecular target: T1, human BRD4 bromodomain II (Homo sapiens, UniProt O60885); assay: Bromodomain binding assay (AlphaScreen), BRD4 BDII; conditions: AlphaScreen assay, Table C2; read-out: BRD4 BDII IC50
T1 construct: human BRD4 bromodomain II [based on Genbank NM_058243, residues 349-460]; host or cells: E. coli
Procedure, shortened: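 Read-out is AlphaScreen signal (ex 680 nm, em 520-620 nm) from streptavidin donor beads on a biotinylated acetylated histone H4 (aa 1-21) peptide and nickel acceptor beads on the His6-tagged bromodomain. IC50 values come from curve fits of percentage peptide binding against compound concentration.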

[2] = system: human SKM-1 acute myeloid leukemia cells; assay: SKM-1 antiproliferation cell-based assay (ATPlite); conditions: Homo sapiens, SKM-1, 96 h, SKM-1 antiproliferation assay, 4 days, Table C2
Procedure, shortened: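 Log-phase cells in RPMI 1640/15% FBS were seeded at 34722 cells/mL and exposed for 4 days to nine-concentration DMSO serial dilutions in triplicate. Viability was read as ATP luminescence (ATPlite 1step), and IC50 values came from variable-slope non-linear regression.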

| Structure (SMILES) | IC50 [1] | GI50 [2] |
| --- | --- | --- |
| Cn1ccn(-c2ccc(-c3cc(F)cc(-c4cncc(N5CCC(C)(N)C5)c4)c3O)cc2Cl)c1=O (centres unmarked) [Example 745, 1-(3′-(5-(3-amino-3-methylpyrrolidin-1-yl)pyridin-3-yl)-3-chloro-5′-fluoro-2′-hydroxy-[1,1′-biphenyl]-4-yl)-3-methyl-1H-imidazol-2(3H)-one] | 0.01 to 1 nM | 0.3 to 30 nM |
| Cn1ccn(-c2ccc(-c3cc(F)cc(-c4cncc(N5CC[C@](C)(N)C5)c4)c3O)cc2Cl)c1=O [Example 746, (S)-1-(3′-(5-(3-amino-3-methylpyrrolidin-1-yl)pyridin-3-yl)-3-chloro-5′-fluoro-2′-hydroxy-[1,1′-biphenyl]-4-yl)-3-methyl-1H-imidazol-2(3H)-one] | 0.01 to 1 nM | 0.3 to 30 nM |
| CC(C)N1CC2CN(c3cc(-c4cc(F)cc(-c5ccc(-n6ccn(C)c6=O)c(Cl)c5)c4O)ccn3)CC21 (centres unmarked) [Example 747, 1-(3-chloro-5′-fluoro-2′-hydroxy-3′-(2-(6-isopropyl-3,6-diazabicyclo[3.2.0]heptan-3-yl)pyridin-4-yl)-[1,1′-biphenyl]-4-yl)-3-methyl-1H-imidazol-2(3H)-one] | 0.01 to 1 nM | 0.3 to 30 nM |
| CC(C)N1CCC12CCN(c1cc(-c3cc(F)cc(-c4ccc(-n5ccn(C)c5=O)c(Cl)c4)c3O)ccn1)C2 (centres unmarked) [Example 748, 1-(3-chloro-5′-fluoro-2′-hydroxy-3′-(2-(1-isopropyl-1,6-diazaspiro[3.4]octan-6-yl)pyridin-4-yl)-[1,1′-biphenyl]-4-yl)-3-methyl-1H-imidazol-2(3H)-one] | 0.01 to 1 nM | 0.3 to 30 nM |
| Cn1ccn(-c2ccc(-c3cc(F)cc(-c4cccc(N5CC[C@](C)(N)C5)c4)c3O)cc2Cl)c1=O [Example 749, (S)-1-(3″-(3-amino-3-methylpyrrolidin-1-yl)-3-chloro-5′-fluoro-2′-hydroxy-[1,1′:3′,1″-terphenyl]-4-yl)-3-methyl-1H-imidazol-2(3H)-one] | 1 to 10 nM | 0.3 to 30 nM |
| CC(C)N1CCCC12CCN(c1cc(-c3cc(F)cc(-c4ccc(-n5ccn(C)c5=O)c(Cl)c4)c3O)ccn1)C2 (centres unmarked) [Example 751, 1-(3-chloro-5′-fluoro-2′-hydroxy-3′-(2-(1-isopropyl-1,7-diazaspiro[4.4]nonan-7-yl)pyridin-4-yl)-[1,1′-biphenyl]-4-yl)-3-methyl-1H-imidazol-2(3H)-one] | 1 to 10 nM | 0.3 to 30 nM |
| Cn1cc(-c2cc(F)cc(-c3ccc(-n4ccn(C)c4=O)c(Cl)c3)c2O)cc(N2CC[C@@](C)(N)C2)c1=O [Example 753, (R)-3-(3-amino-3-methylpyrrolidin-1-yl)-5-(3′-chloro-5-fluoro-2-hydroxy-4′-(3-methyl-2-oxo-2,3-dihydro-1H-imidazol-1-yl)-[1,1′-biphenyl]-3-yl)-1-methylpyridin-2(1H)-one] | 0.01 to 1 nM | 0.3 to 30 nM |
| Cn1ccn(-c2ccc(-c3cc(F)cc(-c4cc(F)cc(N5CCN(C(C)(C)C)CC5)c4)c3O)cc2Cl)c1=O [Example 754, 1-(3″-(4-(tert-butyl)piperazin-1-yl)-3-chloro-5′,5″-difluoro-2′-hydroxy-[1,1′:3′,1″-terphenyl]-4-yl)-3-methyl-1H-imidazol-2(3H)-one] | 0.01 to 1 nM | 0.3 to 30 nM |
| CCc1ncc(-c2cc(F)cc(-c3ccc(-n4ccn(C)c4=O)c(Cl)c3)c2O)cc1N1CCN(C(C)C)CC1 [Example 756, 1-(3-chloro-3′-(6-ethyl-5-(4-isopropylpiperazin-1-yl)pyridin-3-yl)-5′-fluoro-2′-hydroxy-[1,1′-biphenyl]-4-yl)-3-methyl-1H-imidazol-2(3H)-one] | 0.01 to 1 nM | 0.3 to 30 nM |
| Cn1ccn(-c2ccc(-c3cc(F)cc(-c4cccc(N5CC[C@@](C)(N)C5)c4)c3O)cc2Cl)c1=O [Example 758, (R)-1-(3″-(3-amino-3-methylpyrrolidin-1-yl)-3-chloro-5′-fluoro-2′-hydroxy-[1,1′:3′,1″-terphenyl]-4-yl)-3-methyl-1H-imidazol-2(3H)-one] | 0.01 to 1 nM | 0.3 to 30 nM |
| Cn1cc(-c2cc(F)cc(-c3ccc(-n4ccn(C)c4=O)c(Cl)c3)c2O)cc(N2CC[C@](C)(N)C2)c1=O [Example 759, (S)-3-(3-amino-3-methylpyrrolidin-1-yl)-5-(3′-chloro-5-fluoro-2-hydroxy-4′-(3-methyl-2-oxo-2,3-dihydro-1H-imidazol-1-yl)-[1,1′-biphenyl]-3-yl)-1-methylpyridin-2(1H)-one] | 0.01 to 1 nM | 0.3 to 30 nM |
| COCC(C)(C)N1CCN(c2cc(-c3cc(F)cc(-c4ccc(-n5ccn(C)c5=O)c(Cl)c4)c3O)cn(C)c2=O)CC1 [Example 763] | 1 to 10 nM | 0.3 to 30 nM |
| CC(=O)NC1(c2cccc(-c3cc(F)cc(-c4ccc(-n5ccn(C)c5=O)c(Cl)c4)c3O)c2)CC1 [Example 764, N-(1-(3″-chloro-5′-fluoro-2′-hydroxy-4″-(3-methyl-2-oxo-2,3-dihydro-1H-imidazol-1-yl)-[1,1′:3′,1″-terphenyl]-3-yl)cyclopropyl)acetamide] | 1 to 10 nM | 300 to 3000 nM |
| Cn1ccn(-c2ccc(-c3cc(F)cc(-c4cc(N5CC[C@](C)(N)C5)n(C)c(=O)c4)c3O)cc2Cl)c1=O [Example 765, (S)-6-(3-amino-3-methylpyrrolidin-1-yl)-4-(3′-chloro-5-fluoro-2-hydroxy-4′-(3-methyl-2-oxo-2,3-dihydro-1H-imidazol-1-yl)-[1,1′-biphenyl]-3-yl)-1-methylpyridin-2(1H)-one] | 1 to 10 nM | 0.3 to 30 nM |
| Cc1ccc(-c2cc(F)cc(-c3ccc(-n4ccn(C)c4=O)c(Cl)c3)c2O)cc1C(N)=O [Example 766] | 1 to 10 nM | 30 to 300 nM |

More lines, now with the values ahead:

| IC50 [1] | GI50 [2] | Structure (SMILES) |
| --- | --- | --- |
| 0.01 to 1 nM | 0.3 to 30 nM | Cn1ccn(-c2ccc(-c3cc(F)cc(-c4ccnc(N5CCCC(C)(N)C5)c4)c3O)cc2Cl)c1=O (centres unmarked) [Example 744, 1-(3′-(2-(3-amino-3-methylpiperidin-1-yl)pyridin-4-yl)-3-chloro-5′-fluoro-2′-hydroxy-[1,1′-biphenyl]-4-yl)-3-methyl-1H-imidazol-2(3H)-one] |
| 0.01 to 1 nM | 0.3 to 30 nM | Cn1ccn(-c2ccc(-c3cc(F)cc(-c4ccnc(N5CCC(N)(CO)C5)c4)c3O)cc2Cl)c1=O (centres unmarked) [Example 750, 1-(3′-(2-(3-amino-3-(hydroxymethyl)pyrrolidin-1-yl)pyridin-4-yl)-3-chloro-5′-fluoro-2′-hydroxy-[1,1′-biphenyl]-4-yl)-3-methyl-1H-imidazol-2(3H)-one] |
| 0.01 to 1 nM | 0.3 to 30 nM | CN(C)[C@@H]1CN(c2cc(-c3cc(F)cc(-c4ccc(-n5ccn(C)c5=O)c(Cl)c4)c3O)ccn2)C[C@H]1O [Example 752, 1-(3-chloro-3′-(2-((3R,4R)-3-(dimethylamino)-4-hydroxypyrrolidin-1-yl)pyridin-4-yl)-5′-fluoro-2′-hydroxy-[1,1′-biphenyl]-4-yl)-3-methyl-1H-imidazol-2(3H)-one] |
| 0.01 to 1 nM | 0.3 to 30 nM | Cn1ccn(-c2ccc(-c3cc(F)cc(-c4ccnc(N5CC(N)C6(CC6)C5)c4)c3O)cc2Cl)c1=O (centres unmarked) [Example 755, 1-(3′-(2-(7-amino-5-azaspiro[2.4]heptan-5-yl)pyridin-4-yl)-3-chloro-5′-fluoro-2′-hydroxy-[1,1′-biphenyl]-4-yl)-3-methyl-1H-imidazol-2(3H)-one] |
| 0.01 to 1 nM | 30 to 300 nM | Cn1ccn(-c2ccc(-c3cc(F)cc(-c4ccnc(N5CC6CCC(C5)C6(C)N)c4)c3O)cc2Cl)c1=O (centres unmarked) [Example 757, 1-(3′-(2-(8-amino-8-methyl-3-azabicyclo[3.2.1]octan-3-yl)pyridin-4-yl)-3-chloro-5′-fluoro-2′-hydroxy-[1,1′-biphenyl]-4-yl)-3-methyl-1H-imidazol-2(3H)-one] |
| 0.01 to 1 nM | 30 to 300 nM | Cn1ccn(-c2ccc(-c3cc(F)cc(-c4ccnc(N5CC[C@H](C(N)=O)C5)c4)c3O)cc2Cl)c1=O [Example 760] |
| 1 to 10 nM | 30 to 300 nM | Cn1ccn(-c2ccc(-c3cc(F)cc(-c4ccnc(N5CC[C@@H](C(N)=O)C5)c4)c3O)cc2Cl)c1=O [Example 761, (R)-1-(4-(3′-chloro-5-fluoro-2-hydroxy-4′-(3-methyl-2-oxo-2,3-dihydro-1H-imidazol-1-yl)-[1,1′-biphenyl]-3-yl)pyridin-2-yl)pyrrolidine-3-carboxamide] |
| 1 to 10 nM | 30 to 300 nM | Cn1ccn(-c2ccc(-c3cc(F)cc(-c4ccnc(N5CCC(C)(O)CC5)c4)c3O)cc2Cl)c1=O [Example 762, 1-(3-chloro-5′-fluoro-2′-hydroxy-3′-(2-(4-hydroxy-4-methylpiperidin-1-yl)pyridin-4-yl)-[1,1′-biphenyl]-4-yl)-3-methyl-1,3-dihydro-2H-imidazol-2-one] |
| 0.01 to 1 nM | 0.3 to 30 nM | CC(=O)NC1CN(c2cc(-c3cc(F)cc(-c4ccc(-n5ccn(C)c5=O)c(Cl)c4)c3O)ccn2)CC12CC2 (centres unmarked) [Example 767, N-(5-(4-(3′-chloro-5-fluoro-2-hydroxy-4′-(3-methyl-1-oxo-2,3-dihydro-1H-imidazol-1-yl)-[1,1′-biphenyl]-3-yl)pyridin-2-yl)-5-azaspiro[2.4]heptan-7-yl)acetamide] |
| 1 to 10 nM | 30 to 300 nM | CC(=O)NC1(C)CN(c2cc(-c3cc(F)cc(-c4ccc(-n5ccn(C)c5=O)c(Cl)c4)c3O)ccn2)C1 [Example 768, N-(1-(4-(3′-chloro-5-fluoro-2-hydroxy-4′-(3-methyl-2-oxo-2,3-dihydro-1H-imidazol-1-yl)-[1,1′-biphenyl]-3-yl)pyridin-2-yl)-3-methylazetidin-3-yl)acetamide] |
